Several values for one entry are separate records, joined by “and”; a condition that tells them apart may be missing. Equal entries are not always repeated. Where two headings read alike, the source gives them in different places.
Key:
MMP-9 = details: previously reported; cited from earlier work
[1] = molecular target: T1, Mag-Trypsin activated MMP-9 (MMP-9(MT)) (Homo sapiens, UniProt P14780); assay: Enzyme inhibition kinetics, fluorogenic substrate ES001; format: biochemical; details: for Vi/V0 avg: Trypsin activated MMP-9, average
T1 construct: made in house; host or cells: Sf9 and High Five insect cells
T1 sequence (P14780 107-707 limits assumed): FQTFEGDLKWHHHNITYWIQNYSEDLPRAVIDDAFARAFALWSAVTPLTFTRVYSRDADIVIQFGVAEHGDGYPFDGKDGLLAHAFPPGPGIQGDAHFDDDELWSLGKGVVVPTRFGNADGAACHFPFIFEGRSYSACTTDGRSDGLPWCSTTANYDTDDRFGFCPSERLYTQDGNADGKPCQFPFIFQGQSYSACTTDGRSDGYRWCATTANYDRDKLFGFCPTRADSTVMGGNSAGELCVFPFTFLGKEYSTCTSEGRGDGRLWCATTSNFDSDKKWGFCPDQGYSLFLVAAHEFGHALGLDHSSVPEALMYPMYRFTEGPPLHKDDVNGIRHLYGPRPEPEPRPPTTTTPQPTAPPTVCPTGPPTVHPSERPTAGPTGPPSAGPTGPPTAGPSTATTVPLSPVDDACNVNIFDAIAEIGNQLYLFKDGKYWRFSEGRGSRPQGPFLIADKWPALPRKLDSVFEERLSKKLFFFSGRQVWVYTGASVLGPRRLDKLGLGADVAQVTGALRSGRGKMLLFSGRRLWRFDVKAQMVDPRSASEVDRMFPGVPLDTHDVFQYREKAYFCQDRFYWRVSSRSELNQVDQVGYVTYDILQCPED

[2] = molecular target: T2, APMA activated MMP-9 (MMP-9(A)) (Homo sapiens, UniProt P14780); assay: as above; format: biochemical; details: for remaining activity at 100 µM: read-out: vi/v0 avg, rMMP-9 (APMA activated), 100 µM inhibitor; for Vi/V0 AVG: APMA activated MMP-9, average
T2 construct: made in house; host or cells: Sf9 and High Five insect cells
T2 sequence (P14780 107-707 limits assumed): as above
Method in brief: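 Recombinant full-length proMMP-9 expressed in insect cells was auto-activated with APMA and titrated with galardin. Activity at 0.05 nM enzyme was measured using 4.0 µM fluorogenic substrate ES001 in 100 µL 0.1 M Hepes pH 7.5 containing 10 mM CaCl2, 0.005% Brij-35 and 1.0% DMSO. Initial rates were followed at 37°C (excitation 320 nm, emission 405 nm) relative to inhibitor-free controls.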

NC(=O)C(CCC(=O)O)NC(=O)C(CCC(=O)O)NC(=O)C(Cc1cc(-c2ccc(-c3cccc(Cl)c3)cc2)no1)CP(=O)(O)c1ccc(Br)cc1 (stereo not drawn) [H-1]
Ki (MMP-9): 1.3 µM | Ki [1]: 30 ± 4 µM | remaining activity at 100 µM ([1]; 0.25 h, read-out: vi/v0 (single replicate), rMMP-9 (Mag-trypsin activated), 100 µM inhibitor, 15 min pre incubation): 38.1% | remaining activity at 100 µM ([1]; 0.25 h, read-out: vi/v0 avg, rMMP-9 (Mag-trypsin activated), 100 µM inhibitor, 15 min pre incubation): 47.9% | remaining activity at 100 µM ([1]; 0.5 h, read-out: vi/v0 (single replicate), rMMP-9 (Mag-trypsin activated), 100 µM inhibitor, 30 min pre incubation): 47.4% | remaining activity at 100 µM ([1]; 0.5 h, read-out: vi/v0 avg, rMMP-9 (Mag-trypsin activated), 100 µM inhibitor, 30 min pre incubation): 47.5% | inhibitory effect on enzymatic activity ([1]; MMP-9(MT), 100 μM compound, in words): strong inhibition | Vi/V0 avg ([1]; [H1] 10 μM): 0.823 | Vi/V0 avg ([1]; [H1] 20 μM): 0.766 | Vi/V0 avg ([1]; [H1] 30 μM): 0.6506 | Vi/V0 avg ([1]; [H1] 40 μM): 0.6729 | Vi/V0 avg ([1]; [H1] 50 μM): 0.6218 | Vi/V0 avg ([1]; [H1] 60 μM): 0.5683 | Vi/V0 avg ([1]; [H1] 70 μM): 0.5353 | Vi/V0 avg ([1]; [H1] 80 μM): 0.5363 | Vi/V0 avg ([1]; [H1] 90 μM): 0.4452 | Vi/V0 avg ([1]; [H1] 100 μM): 0.4212 | vi/v0 Av (bar diagram figure 7) ([1]; rMMP-9 (Mag-trypsin activated), inhibitor 100 μM, average over 0, 15, 30 min preincubation): 0.4755 | vi/v0 (relative enzyme activity with inhibitor), single determinations ([1]; rMMP-9 (Mag-trypsin activated), inhibitor 100 μM, preincubation 0 min): 0.4571 and 0.4536 and 0.4887 and 0.489 | vi/v0 (relative enzyme activity with inhibitor), single determinations ([1]; rMMP-9 (Mag-trypsin activated), inhibitor 100 μM, preincubation 15 min): 0.3806 and 0.5206 and 0.4881 and 0.528 | vi/v0 (relative enzyme activity with inhibitor), single determinations ([1]; rMMP-9 (Mag-trypsin activated), inhibitor 100 μM, preincubation 30 min): 0.4739 and 0.4997 and 0.4971 and 0.4295 | remaining activity at 10 µM ([1]; read-out: Vi/V0, Trypsin activated MMP-9, [H1] 10 μM, replicate vi over each of 4 controls): 76.1% | remaining activity at 40 µM ([1]; read-out: Vi/V0, Trypsin activated MMP-9, [H1] 40 μM, replicate vi over each of 4 controls): 63.2% | remaining activity at 50 µM ([1]; read-out: Vi/V0, Trypsin activated MMP-9, [H1] 50 μM, replicate vi over each of 4 controls): 58.9% | remaining activity at 60 µM ([1]; read-out: Vi/V0, Trypsin activated MMP-9, [H1] 60 μM, replicate vi over each of 4 controls): 52.9% | remaining activity at 70 µM ([1]; read-out: Vi/V0, Trypsin activated MMP-9, [H1] 70 μM, replicate vi over each of 4 controls): 49.6% | remaining activity at 80 µM ([1]; read-out: Vi/V0, Trypsin activated MMP-9, [H1] 80 μM, replicate vi over each of 4 controls): 51% | remaining activity at 90 µM ([1]; read-out: Vi/V0, Trypsin activated MMP-9, [H1] 90 μM, replicate vi over each of 4 controls): 44.2% | remaining activity at 100 µM ([1]; read-out: Vi/V0, Trypsin activated MMP-9, [H1] 100 μM, replicate vi over each of 4 controls): 40.5% | remaining activity at 100 µM ([1]; read-out: vi/v0 (single replicate), rMMP-9 (Mag-trypsin activated), 100 µM inhibitor, no preincubation): 45.7% | remaining activity at 100 µM ([1]; read-out: vi/v0 avg, rMMP-9 (Mag-trypsin activated), 100 µM inhibitor, no preincubation): 47.2% | Ki [2]: 19 ± 3 µM | remaining activity at 100 µM ([2]; 0.25 h, 15 min pre incubation): 25.7% | remaining activity at 100 µM ([2]; 0.5 h, 30 min pre incubation): 25.3% | Vi/V0 AVG ([2]; [H1] 10 μM): 0.7315 | Vi/V0 AVG ([2]; [H1] 20 μM): 0.5955 | Vi/V0 AVG ([2]; [H1] 30 μM): 0.5816 | Vi/V0 AVG ([2]; [H1] 40 μM): 0.5052 | Vi/V0 AVG ([2]; [H1] 50 μM): 0.4481 | Vi/V0 AVG ([2]; [H1] 60 μM): 0.4125 | Vi/V0 AVG ([2]; [H1] 70 μM): 0.3558 | Vi/V0 AVG ([2]; [H1] 80 μM): 0.3478 | Vi/V0 AVG ([2]; [H1] 90 μM): 0.3201 | Vi/V0 AVG ([2]; [H1] 100 μM): 0.265 | inhibitory effect on enzymatic activity ([2]; MMP-9(A), 100 μM compound, in words): strong inhibition | vi/v0 Av (bar diagram figure 7) ([2]; rMMP-9 (APMA activated), inhibitor 100 μM, average over 0, 15, 30 min preincubation): 0.2424 | vi/v0 (relative enzyme activity with inhibitor), single determinations ([2]; rMMP-9 (APMA activated), inhibitor 100 μM, preincubation 0 min): 0.1639 and 0.167 and 0.1831 and 0.1727 and 0.3076 and 0.251 and 0.276 | remaining activity at 20 µM ([2]; read-out: Vi/V0, APMA activated MMP-9, [H1] 20 μM, replicate vi over each of 4 controls): 59.1% | remaining activity at 40 µM ([2]; read-out: Vi/V0, APMA activated MMP-9, [H1] 40 μM, replicate vi over each of 4 controls): 41.9% | remaining activity at 50 µM ([2]; read-out: Vi/V0, APMA activated MMP-9, [H1] 50 μM, replicate vi over each of 4 controls): 41.4% | remaining activity at 60 µM ([2]; read-out: Vi/V0, APMA activated MMP-9, [H1] 60 μM, replicate vi over each of 4 controls): 36.8% | remaining activity at 70 µM ([2]; read-out: Vi/V0, APMA activated MMP-9, [H1] 70 μM, replicate vi over each of 4 controls): 33.5% | remaining activity at 80 µM ([2]; read-out: Vi/V0, APMA activated MMP-9, [H1] 80 μM, replicate vi over each of 4 controls): 32.6% | remaining activity at 90 µM ([2]; read-out: Vi/V0, APMA activated MMP-9, [H1] 90 μM, replicate vi over each of 4 controls): 27.8%

Reference: PMC12316308, “Interactions of substrates and phosphinyl containing inhibitors with bacterial and human zinc proteases” (PLOS One, 2025)
